Data from US10106559B2, “Substituted tetrahydrocarbazole and carbazole carboxamide compounds” (BRISTOL-MYERS SQUIBB COMPANY, priority 2013, dated 2018).

target: Jak2 tyrosine kinase (Homo sapiens (Human), UniProt O60674); test: Jak2 Tyrosine Kinase Assay; assay type: biochemical; details: not given
Sequence (O60674 whole entry): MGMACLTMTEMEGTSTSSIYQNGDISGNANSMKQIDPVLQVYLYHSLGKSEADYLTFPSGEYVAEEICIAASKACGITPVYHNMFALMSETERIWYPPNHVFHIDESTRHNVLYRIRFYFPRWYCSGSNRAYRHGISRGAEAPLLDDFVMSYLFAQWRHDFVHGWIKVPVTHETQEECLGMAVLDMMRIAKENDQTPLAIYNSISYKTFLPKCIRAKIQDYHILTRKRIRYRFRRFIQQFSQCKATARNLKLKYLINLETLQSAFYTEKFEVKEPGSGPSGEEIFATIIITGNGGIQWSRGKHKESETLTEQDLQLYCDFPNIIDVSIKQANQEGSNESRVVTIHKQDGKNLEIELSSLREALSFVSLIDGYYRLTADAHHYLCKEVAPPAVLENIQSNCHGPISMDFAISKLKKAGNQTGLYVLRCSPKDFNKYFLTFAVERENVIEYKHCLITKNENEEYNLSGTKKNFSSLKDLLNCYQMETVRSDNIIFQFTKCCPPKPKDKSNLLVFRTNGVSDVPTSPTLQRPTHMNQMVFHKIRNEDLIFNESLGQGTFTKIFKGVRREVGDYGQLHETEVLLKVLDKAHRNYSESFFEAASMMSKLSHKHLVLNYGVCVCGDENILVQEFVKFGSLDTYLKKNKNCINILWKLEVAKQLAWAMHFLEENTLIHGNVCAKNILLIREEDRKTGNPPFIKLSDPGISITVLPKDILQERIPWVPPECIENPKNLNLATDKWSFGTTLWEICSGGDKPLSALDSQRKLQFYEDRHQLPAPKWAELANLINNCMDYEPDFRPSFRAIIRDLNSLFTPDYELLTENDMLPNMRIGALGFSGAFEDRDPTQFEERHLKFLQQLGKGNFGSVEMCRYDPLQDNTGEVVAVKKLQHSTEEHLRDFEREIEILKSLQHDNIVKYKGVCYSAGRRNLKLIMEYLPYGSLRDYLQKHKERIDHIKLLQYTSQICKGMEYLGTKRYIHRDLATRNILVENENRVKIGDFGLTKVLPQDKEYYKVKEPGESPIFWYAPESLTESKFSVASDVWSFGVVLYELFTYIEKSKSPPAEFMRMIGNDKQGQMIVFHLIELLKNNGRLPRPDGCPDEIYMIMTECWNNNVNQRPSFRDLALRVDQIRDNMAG

SMILES	IC50
Cc1c(-c2c(F)cc(C(N)=O)c3[nH]c4cc(C(C)(C)O)ccc4c23)cccc1-n1c(=O)[nH]c2c(F)cc(F)cc2c1=O (single isomer, unassigned) [Example 73]	580 nM

same assay, conditions: Jak2 IC50 over Btk IC50; larger value = more selective for Btk

SMILES	Ratio of Jak2/Btk IC50 values
Cc1nc(C(N)=O)c2[nH]c3cc(C(C)(C)O)ccc3c2c1-c1cccc(-n2cnc3ccccc3c2=O)c1C [Comparative Example 76, 7-(2-Hydroxypropan-2-yl)-3-methyl-4-(2-methyl-3-(4-oxoquinazolin-3(4H)-yl)phenyl)-9H-pyrido[3,4-b]indole-1-carboxamide, reference compound]	29

same assay, conditions: selectivity: Jak2 IC50 divided by Btk IC50

SMILES	Ratio of Jak2/Btk IC50 values
Cc1c(-c2c(Cl)cc(C(N)=O)c3[nH]c4cc(C(C)(C)O)ccc4c23)cccc1-n1c(=O)cc2c(F)cccn2c1=O [Example 36, 3-Chloro-4-(R)-(3-(5-fluoro-1,3-dioxo-1H-pyrido[1,2-c]pyrimidin-2(3H)-yl)-2-methylphenyl)-7-(2-hydroxypropan-2-yl)-9H-carbazole-1-carboxamide]	1600
Cc1c(-c2c(Cl)cc(C(N)=O)c3[nH]c4cc(C(C)(C)O)ccc4c23)cccc1-n1c(=O)cc2sccn2c1=O [Example 38, 3-Chloro-4-(R)-(3-(5,7-dioxo-5H-thiazolo[3,2-c]pyrimidin-6(7H)-yl)-2-methylphenyl)-7-(2-hydroxypropan-2-yl)-9H-carbazole-1-carboxamide]	880
Cc1c(-c2c(Cl)cc(C(N)=O)c3[nH]c4cc(C(C)(C)O)ccc4c23)cccc1-n1c(=O)cc2c(F)cccn2c1=O [Example 34, 3-Chloro-4-(3-(5-fluoro-1,3-dioxo-1H-pyrido[1,2-c]pyrimidin-2(3H)-yl)-2-methylphenyl)-7-(2-hydroxypropan-2-yl)-9H-carbazole-1-carboxamide]	440
Cc1c(-c2c(F)cc(C(N)=O)c3[nH]c4cc(C(C)(C)O)ccc4c23)cccc1-n1c(=O)cc2c(F)cccn2c1=O [Example 41, 3-Fluoro-4-(R)-(3-(5-fluoro-1,3-dioxo-1H-pyrido[1,2-c]pyrimidin-2(3H)-yl)-2-methylphenyl)-7-(2-hydroxypropan-2-yl)-9H-carbazole-1-carboxamide]	4000
Cc1nc(C(N)=O)c2[nH]c3cc(C(C)(C)O)ccc3c2c1-c1cccc(-n2cnc3ccccc3c2=O)c1C [Comparative Example 76, 7-(2-Hydroxypropan-2-yl)-3-methyl-4-(2-methyl-3-(4-oxoquinazolin-3(4H)-yl)phenyl)-9H-pyrido[3,4-b]indole-1-carboxamide, reference compound]	29
Cc1c(-c2c(F)cc(C(N)=O)c3[nH]c4cc(C(C)(C)O)ccc4c23)cccc1-n1c(=O)cc2c(F)cccn2c1=O [Example 40, 3-Fluoro-4-(R)-(3-(5-fluoro-1,3-dioxo-1H-pyrido[1,2-c]pyrimidin-2(3H)-yl)-2-methylphenyl)-7-(2-hydroxypropan-2-yl)-9H-carbazole-1-carboxamide]	1800
Cc1c(-c2c(Cl)cc(C(N)=O)c3[nH]c4cc(C(C)(C)O)ccc4c23)cccc1-n1c(=O)cc2sccn2c1=O [Example 39, 3-Chloro-4-(R)-(3-(5,7-dioxo-5H-thiazolo[3,2-c]pyrimidin-6(7H)-yl)-2-methylphenyl)-7-(2-hydroxypropan-2-yl)-9H-carbazole-1-carboxamide]	1200
COc1ccc2c(=O)n(-c3cccc(-c4c(Cl)cc(C(N)=O)c5[nH]c6cc(C(C)(C)O)ccc6c45)c3C)c(=O)n(C)c2c1 (single isomer, unassigned) [Example 5]	>950
Cc1c(-c2c(F)cc(C(N)=O)c3[nH]c4c(c23)CC[C@H](C(C)(C)O)C4)cccc1-n1c(=O)c2cccc(F)c2n(C)c1=O (atropisomer, axis not shown) [Example 28, 6-Fluoro-5-(R)-(3-(S)-(8-fluoro-1-methyl-2,4-dioxo-1,2-dihydroquinazolin-3(4H)-yl)-2-methylphenyl)-2-(S)-(2-hydroxypropan-2-yl)-2,3,4,9-tetrahydro-1H-carbazole-8-carboxamide]	59000
Cc1c(-c2c(Cl)cc(C(N)=O)c3[nH]c4cc(C(C)(C)O)ccc4c23)cccc1-n1c(=O)cc2c(F)cccn2c1=O [Example 35, 3-Chloro-4-(R)-(3-(5-fluoro-1,3-dioxo-1H-pyrido[1,2-c]pyrimidin-2(3H)-yl)-2-methylphenyl)-7-(2-hydroxypropan-2-yl)-9H-carbazole-1-carboxamide]	3200
